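In this assay, cells in 96-well plates receive the compound at five concentrations for 48 hours. Endpoints are linearly interpolated between the surrounding concentrations. GI50 marks 50% less growth.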 The source made the active and inactive calls. Cut-off read from the data, not from the text of the source: active = GI50 up to about 1.1 µM and inactive = higher.
Key:
Assay in all cases: DTP human tumour cell line panel, 48 h
DMS-273 = test system: DMS-273
LOX IMVI = test system: LOX IMVI
SK-MEL-28 = test system: SK-MEL-28
OVCAR-4 = test system: OVCAR-4
OVCAR-8 = test system: OVCAR-8
SF-295 = test system: SF-295
NCI-H460 = test system: NCI-H460
HCT-15 = test system: HCT-15
IGROV-1 = test system: IGROV-1
HOP-92 = test system: HOP-92
A498 = test system: A498
MOLT-4 = test system: MOLT-4
KM12 = test system: KM12
786-0 = test system: 786-0
UACC-62 = test system: UACC-62
K562 = test system: K562
OVCAR-3 = test system: OVCAR-3
SK-MEL-5 = test system: SK-MEL-5

Structure (SMILES) | GI50 (DMS-273) | GI50 (LOX IMVI) | GI50 (SK-MEL-28) | GI50 (OVCAR-4) | GI50 (OVCAR-8) | GI50 (SF-295) | GI50 (NCI-H460) | GI50 (HCT-15) | GI50 (IGROV-1) | GI50 (HOP-92) | GI50 (A498) | GI50 (MOLT-4) | GI50 (KM12) | GI50 (786-0) | GI50 (UACC-62) | GI50 (K562) | GI50 (OVCAR-3) | GI50 (SK-MEL-5)
NC(CCCC(N)P(=O)(O)c1ccccc1)P(=O)(O)c1ccccc1 (centres undefined) | > 261 µM (inactive) | > 261 µM (inactive) | > 261 µM (inactive) | > 261 µM (inactive) | > 261 µM (inactive) | > 261 µM (inactive) | > 261 µM (inactive) | > 261 µM | > 261 µM (inactive) | > 261 µM (inactive) | > 261 µM (inactive) | > 261 µM (inactive) | > 261 µM (inactive) | > 261 µM (inactive) | > 261 µM (inactive) | > 261 µM (inactive) | > 261 µM (inactive) | 
CCN1CCC(O)(/C=C/c2ccccc2)C(C(=O)/C=C/c2ccccc2)C1 (centres undefined) | 1.68 µM (inactive) |  | 1.89 µM (inactive) | 3.27 µM (inactive) | 1.89 µM (inactive) | 2.96 µM (inactive) | 1.95 µM (inactive) | 1.87 µM | 1.85 µM (inactive) | 2.64 µM (inactive) | 6.21 µM (inactive) | 2.21 µM (inactive) | 1.8 µM (inactive) | 1.75 µM (inactive) | 1.71 µM (inactive) |  | 3.1 µM (inactive) | 3.22 µM (inactive)
COC(=O)C1=C(C)N(NC(=O)Nc2ccccc2)C2(N)N(NC(=O)Nc3ccccc3)C(C)=C(C(=O)OC)C12C(=O)OC (centres undefined) | 40.3 µM (inactive) | 72.6 µM (inactive) | > 100 µM (inactive) | 64.9 µM (inactive) | 71 µM (inactive) |  | 38.3 µM (inactive) | 76.4 µM | 24.5 µM (inactive) | > 100 µM (inactive) | 59.6 µM (inactive) | 27.1 µM (inactive) |  | 66.7 µM (inactive) | 41.3 µM (inactive) | 51.9 µM (inactive) | 54.2 µM (inactive) | 
CC(=O)Nc1ccc(C2C(C(=O)Nc3ccccc3C)=C(C)NC(C)=C2C(=O)Nc2ccccc2C)cc1 | > 100 µM (inactive) | > 100 µM (inactive) | > 100 µM (inactive) | > 100 µM (inactive) | > 92 µM (inactive) | > 100 µM (inactive) | > 100 µM (inactive) | > 100 µM | > 100 µM (inactive) | > 100 µM (inactive) | > 100 µM (inactive) |  | > 31.6 µM (inactive) | > 100 µM (inactive) | > 92.3 µM (inactive) | 57.5 µM (inactive) | > 100 µM (inactive) | > 100 µM (inactive)
O=C(Nc1nc2ncn(CCO)c2c(=O)[nH]1)c1ccccc1 | > 100 µM (inactive) | > 100 µM (inactive) | > 100 µM (inactive) | > 100 µM (inactive) | > 100 µM (inactive) | > 100 µM (inactive) | > 100 µM (inactive) | > 100 µM | > 100 µM (inactive) | > 100 µM (inactive) | > 100 µM (inactive) |  | > 100 µM (inactive) | > 100 µM (inactive) | > 100 µM (inactive) | > 100 µM (inactive) | > 100 µM (inactive) | > 100 µM (inactive)
COC(=O)C1[C@@H](C(=O)OC)C12C=Cc1ccccc1C=C2 (some centres undefined) | > 100 µM (inactive) | > 100 µM (inactive) | > 100 µM (inactive) |  | > 100 µM (inactive) | > 100 µM (inactive) | > 100 µM (inactive) | > 100 µM | > 100 µM (inactive) | > 100 µM (inactive) | 38.5 µM (inactive) | > 100 µM (inactive) | > 100 µM (inactive) | > 100 µM (inactive) | > 100 µM (inactive) | > 100 µM (inactive) | > 100 µM (inactive) | > 100 µM (inactive)

From ChEMBL document CHEMBL1201862, “PubChem BioAssay data set” (2004)
